Counter-ions that a name gives are not always drawn.
System: plaque type psoriasis vulgaris
Experiment: Simple-blind, own-control topical gel treatment of five psoriasis patients (Example 1)
Type: in vivo, human
Text: The gel used was of the following composition:
Patients for the treatment of psoriasis (five patients) were chosen as having a relatively secure diagnosis of plaque type psoriasis vulgaris with silvery scales covering the surface of the lesion. This disease tends to be chronic, and often difficult to treat with topical agents. All of the five patients treated were diagnosed by a dermatologist and had the diagnosis for over three years. None of these patients had arthritis.
After a treatment, which may vary from two weeks to one month, there was a considerable improvement both scaling, size, thickness and erythematous appearance of the lesions. The lesions in these patients were all symmetric and each patient was treated with the formulation of the present invention without the active compound on one side and with the active compound on the other. Each patient was treated as their own control (simple blind).
Two patients were treated with galantamine and three patients with donepezil.

With `COc1cc2c(cc1OC)C(=O)C(CC1CCN(Cc3ccccc3)CC1)C2` (centres unmarked) [donepezil, donepezil hydrochloride] the adverse effect (human, in vivo) was “no adverse effect was noticed”.

`COc1ccc2c3c1O[C@H]1C[C@@H](O)C=C[C@@]31CCN(C)C2` [galantamine, galantamine hydrobromide] was tested, and the adverse effect (gel containing 0.1% active compound, two days twice daily) was “no adverse effect was noticed”.
